In US20250282827A1, “LIPIDATED POLYMYXIN ANALOGUES” (priority 2021, published 2025):
In brackets after ≈: the same amount, converted by molar mass. Like-named read-outs stand apart in the source and are kept apart here. Positions of bridges follow the written chain, without caps; N, C: chain ends. Non-standard residues stand in square brackets, D forms with d. Residues, ends and D or L forms follow the SMILES beside them. *: point of attachment. CH2CH2OBz(4-tBu) = CC(C)(C)c1ccc(C(=O)OCC*)cc1; Ethyl(2-propionyloxy) = CCC(=O)OCC*; Ethyl(2-OPiv) = CC(C)(C)C(=O)OCC*; Ethyl(2-OBz) = O=C(OCC*)c1ccccc1; Dab = NCC[C@H](N)C(=O)O; X2 = O=C(OCC*)C1CCCCC1; X12 = O=C(OCC*)C1CCC1; X8 = O=C(OCC*)C1CCCC1; X11 = O=C(OCC*)C1CC1

Key:
E. coli ATCC 25922 = type: cell-based, Escherichia coli
From the text: (§1) All 81 compounds prepared in Examples 2 and 3 underwent screening against a panel of Gram-negative bacterium to assess their ability to inhibit bacterial growth. […] The median value is presented.

A. baumannii ATCC 19606 = type: cell-based, Acinetobacter baumannii
From the text: as §1

P. aeruginosa ATCC 27853 = type: cell-based, Pseudomonas aeruginosa
From the text: as §1

K. pneumoniae ATCC 33495 = type: cell-based, Klebsiella pneumoniae
From the text: as §1

[1] = system: K. pneumoniae ATCC 700603; type: cell-based, Klebsiella pneumoniae
From the text: as §1

[2] = system: K. pneumoniae ATCC MS6671; type: cell-based, Klebsiella pneumoniae
From the text: as §1

E. coli ATCC MS8345 = type: cell-based, Escherichia coli
From the text: as §1
Expansion of the polymyxin macrocycle by substituting […]) offered little advantage in antimicrobial activity but was generally well tolerated although for A. baumanni and P. aeruginosa this was detrimental.

[3] = system: kidney organoids derived from human induced pluripotent stem cells; test: Nephrotoxicity on kidney organoids, renal tubule deterioration by bright field imaging; type: cell-based; details: scored after 48 h; note: key: 1 = unaffected; 2 = mild deterioration; 3 = severe deterioration; 4 = complete deterioration
Description: Selected polymyxin analogues were evaluated for cytotoxicity in physiologically relevant human kidney tissue, using kidney organoids derived from human induced pluripotent stem cells (Soo et al. 2018). Monolipidated analogues 29, 31, 33, containing a propyl, decyl or phenyl lipid, dilapidated compounds, 35, 38, 39, containing a propyl, tert-butyl or phenyl, lipid, respectively and the N-capped, di-lipidated (phenyl) 49 were selected.
The control compound polymyxin B and the seven ClipPA analogues were tested by adding a range of concentrations (based on Gallado-Godoy et al. 2016) to the organoids at day 12 of the protocol, shown previously to correspond to optimal maturity of the organoid tissues.
Toxicity was scored after 48 h for signs of renal tubule deterioration visible by bright field imaging (not shown).

[4] = colistin-resistant strain, median of triplicate

Row | Compound | MIC E. coli ATCC 25922 (E. coli ATCC 25922; median of triplicate) [µg/mL] | MIC A. baumannii ATCC 19606 (A. baumannii ATCC 19606; median of triplicate) [µg/mL] | MIC P. aeruginosa ATCC 27853 (P. aeruginosa ATCC 27853; median of triplicate) [µg/mL] | MIC K. pneumoniae ATCC 33495 (K. pneumoniae ATCC 33495; median of triplicate) [µg/mL] | MIC K. pneumoniae ATCC 700603 ([1]; median of triplicate) [µg/mL] | MIC K. pneumoniae ATCC MS6671 ([2]; median of triplicate) [µg/mL] | MIC E. coli ATCC MS8345 (E. coli ATCC MS8345; [4]) [µg/mL] | Score (nephrotoxicity on kidney organoids) ([3]; 100 μM) | Score (nephrotoxicity on kidney organoids) ([3]; 300 μM) | Score (nephrotoxicity on kidney organoids) ([3]; 1 mM) | MIC E. coli ATCC 25922 (E. coli ATCC 25922; ATCC 25922) [µg/mL] | MIC A. baumannii ATCC 19606 (A. baumannii ATCC 19606; ATCC 19606) [µg/mL] | MIC P. aeruginosa ATCC 27853 (P. aeruginosa ATCC 27853; ATCC 27853) [µg/mL] | MIC K. pneumoniae ATCC 33495 (K. pneumoniae ATCC 33495; ATCC 33495) [µg/mL] | MIC K. pneumoniae ATCC 700603 ([1]; ATCC 700603) [µg/mL] | MIC K. pneumoniae ATCC MS6671 ([2]; ATCC MS6671) [µg/mL] | MIC E. coli ATCC MS8345 (E. coli ATCC MS8345; ATCC MS8345) [µg/mL]
1 | CC(C)C[C@@H]1NC(=O)[C@@H](Cc2ccccc2)NC(=O)[C@H](CCN)NC(=O)[C@@H](NC(=O)[C@H](CCN)NC(=O)[C@@H](NC(=O)[C@H](CCN)NC(=O)[C@@H](N)CSCCOC(=O)c2ccccc2)[C@@H](C)O)CCNC(=O)[C@H]([C@@H](C)O)NC(=O)[C@H](CCN)NC(=O)[C@H](CCN)NC1=O [Compound 33] (H-C(Ethyl(2-OBz))[Dab]T[Dab][Dab][Dab][dF]L[Dab][Dab]T; lactam 5-C) | 0.25 (≈ 0.19 µM) | 0.5 (≈ 0.38 µM) | 0.5 (≈ 0.38 µM) | 0.0625 (≈ 0.0475 µM) | 0.25 (≈ 0.19 µM) | >32 | 2 (≈ 1.52 µM) | 1 | 3 | 4 | – | – | – | – | – | – | –
2 | CCC(=O)OCCSC[C@H](N)C(=O)N[C@@H](CCN)C(=O)N[C@H](C(=O)N[C@@H](CCN)C(=O)N[C@H]1CCNC(=O)[C@H]([C@@H](C)O)NC(=O)[C@H](CCN)NC(=O)[C@H](CCN)NC(=O)[C@H](CSCCOC(=O)c2ccccc2)NC(=O)[C@@H](Cc2ccccc2)NC(=O)[C@H](CCN)NC1=O)[C@@H](C)O [Compound 44] (H-C(Ethyl(2-propionyloxy))[Dab]T[Dab][Dab][Dab][dF]C(Ethyl(2-OBz))[Dab][Dab]T; lactam 5-C) | 0.5 (≈ 0.356 µM) | 32 (≈ 22.8 µM) | 16 (≈ 11.4 µM) | 0.5 (≈ 0.356 µM) | 0.5 (≈ 0.356 µM) | >32 | 32 (≈ 22.8 µM) | 1 | 2 | 3 | – | – | – | – | – | – | –
3 | C[C@@H](O)[C@@H]1NC(=O)[C@H](CCN)NC(=O)[C@H](CCN)NC(=O)[C@H](CSCCOC(=O)c2ccccc2)NC(=O)[C@@H](Cc2ccccc2)NC(=O)[C@H](CCN)NC(=O)[C@@H](NC(=O)[C@H](CCN)NC(=O)[C@@H](NC(=O)[C@H](CCN)NC(=O)[C@@H](N)CSCCOC(=O)C(C)(C)C)[C@@H](C)O)CCNC1=O [Compound 46] (H-C(Ethyl(2-OPiv))[Dab]T[Dab][Dab][Dab][dF]C(Ethyl(2-OBz))[Dab][Dab]T; lactam 5-C) | 2 to 4 | 16 (≈ 11.2 µM) | 16 (≈ 11.2 µM) | 2 (≈ 1.4 µM) | 1 to 2 | >32 | – | 1 | 3 | 4 | – | – | – | – | – | – | –
4 | CCC(=O)OCCSC[C@@H]1NC(=O)[C@@H](Cc2ccccc2)NC(=O)[C@H](CCN)NC(=O)[C@@H](NC(=O)[C@H](CCN)NC(=O)[C@@H](NC(=O)[C@H](CCN)NC(=O)[C@@H](N)CSCCOC(=O)c2ccccc2)[C@@H](C)O)CCNC(=O)[C@H]([C@@H](C)O)NC(=O)[C@H](CCN)NC(=O)[C@H](CCN)NC1=O [Compound 47] (H-C(Ethyl(2-OBz))[Dab]T[Dab][Dab][Dab][dF]C(Ethyl(2-propionyloxy))[Dab][Dab]T; lactam 5-C) | 2 to 4 | >32 | >32 | 2 to 4 | 2 to 4 | >32 | >32 | 1 | 2 | 3 | – | – | – | – | – | – | –
5 | C[C@@H](O)[C@@H]1NC(=O)[C@H](CCN)NC(=O)[C@H](CCN)NC(=O)[C@H](CSCCOC(=O)C(C)(C)C)NC(=O)[C@@H](Cc2ccccc2)NC(=O)[C@H](CCN)NC(=O)[C@@H](NC(=O)[C@H](CCN)NC(=O)[C@@H](NC(=O)[C@H](CCN)NC(=O)[C@@H](N)CSCCOC(=O)c2ccccc2)[C@@H](C)O)CCNC1=O [Compound 48] (H-C(Ethyl(2-OBz))[Dab]T[Dab][Dab][Dab][dF]C(Ethyl(2-OPiv))[Dab][Dab]T; lactam 5-C) | 2 (≈ 1.4 µM) | 32 (≈ 22.3 µM) | 2 (≈ 1.4 µM) | 2 to 4 | 4 (≈ 2.79 µM) | >32 | >32 | 1 | 2 | 4 | – | – | – | – | – | – | –
6 | CC(C)C[C@@H]1NC(=O)[C@@H](Cc2ccccc2)NC(=O)[C@H](CCN)NC(=O)[C@@H](NC(=O)[C@H](CCN)NC(=O)[C@@H](NC(=O)[C@H](N)CSCCOC(=O)C2CC2)[C@@H](C)O)CCNC(=O)[C@H]([C@@H](C)O)NC(=O)[C@H](CCN)NC(=O)[C@H](CCN)NC1=O [Compound 100] (H-[dC](X11)T[Dab][Dab][Dab][dF]L[Dab][Dab]T; lactam 4-C) | – | – | – | – | – | – | – | – | – | – | 4 (≈ 3.39 µM) | 16 (≈ 13.6 µM) | 4 (≈ 3.39 µM) | 2 (≈ 1.7 µM) | 4 (≈ 3.39 µM) | >32 | >32
7 | CC(C)C[C@@H]1NC(=O)[C@@H](Cc2ccccc2)NC(=O)[C@H](CCN)NC(=O)[C@@H](NC(=O)[C@H](CCN)NC(=O)[C@@H](NC(=O)[C@H](N)CSCCOC(=O)C2CCC2)[C@@H](C)O)CCNC(=O)[C@H]([C@@H](C)O)NC(=O)[C@H](CCN)NC(=O)[C@H](CCN)NC1=O [Compound 101] (H-[dC](X12)T[Dab][Dab][Dab][dF]L[Dab][Dab]T; lactam 4-C) | – | – | – | – | – | – | – | – | – | – | 1 (≈ 0.839 µM) | 4 (≈ 3.35 µM) | 2 (≈ 1.68 µM) | 1 (≈ 0.839 µM) | 2 (≈ 1.68 µM) | >32 | >32
8 | CC(C)C[C@@H]1NC(=O)[C@@H](Cc2ccccc2)NC(=O)[C@H](CCN)NC(=O)[C@@H](NC(=O)[C@H](CCN)NC(=O)[C@@H](NC(=O)[C@H](N)CSCCOC(=O)C2CCCC2)[C@@H](C)O)CCNC(=O)[C@H]([C@@H](C)O)NC(=O)[C@H](CCN)NC(=O)[C@H](CCN)NC1=O [Compound 102] (H-[dC](X8)T[Dab][Dab][Dab][dF]L[Dab][Dab]T; lactam 4-C) | – | – | – | – | – | – | – | – | – | – | 1 (≈ 0.829 µM) | 16 (≈ 13.3 µM) | 2 (≈ 1.66 µM) | 1 (≈ 0.829 µM) | 1 (≈ 0.829 µM) | >32 | 16 (≈ 13.3 µM)
9 | CC(C)C[C@@H]1NC(=O)[C@@H](Cc2ccccc2)NC(=O)[C@H](CCN)NC(=O)[C@@H](NC(=O)[C@H](CCN)NC(=O)[C@@H](NC(=O)[C@H](N)CSCCOC(=O)C2CCCCC2)[C@@H](C)O)CCNC(=O)[C@H]([C@@H](C)O)NC(=O)[C@H](CCN)NC(=O)[C@H](CCN)NC1=O [Compound 103] (H-[dC](X2)T[Dab][Dab][Dab][dF]L[Dab][Dab]T; lactam 4-C) | – | – | – | – | – | – | – | – | – | – | 2 (≈ 1.64 µM) | 4 (≈ 3.28 µM) | 2 (≈ 1.64 µM) | 2 (≈ 1.64 µM) | 2 (≈ 1.64 µM) | >32 | 16 (≈ 13.1 µM)
10 | CC(C)C[C@@H]1NC(=O)[C@@H](Cc2ccccc2)NC(=O)[C@H](CCN)NC(=O)[C@@H](NC(=O)[C@H](CCN)NC(=O)[C@@H](NC(=O)[C@H](N)CSCCOC(=O)c2ccc(C(C)(C)C)cc2)[C@@H](C)O)CCNC(=O)[C@H]([C@@H](C)O)NC(=O)[C@H](CCN)NC(=O)[C@H](CCN)NC1=O [Compound 104] (H-[dC](CH2CH2OBz(4-tBu))T[Dab][Dab][Dab][dF]L[Dab][Dab]T; lactam 4-C) | – | – | – | – | – | – | – | – | – | – | 2 (≈ 1.57 µM) | 4 (≈ 3.15 µM) | 2 (≈ 1.57 µM) | 2 (≈ 1.57 µM) | 4 (≈ 3.15 µM) | >32 | 2 (≈ 1.57 µM)
